Broadly, the IC50 is the midpoint of a concentration-inhibition curve.

Values joined by “and” are separate entries in the source; they are usually repeats but may differ in a detail not shown here. Identical values can stand only once. Active and inactive are the calls of the source. How the calls were made is not given here. *1 amine or outer side, *2 acyl side, *3 side chain or, on linkers, in order; H or OH if unused. Where a SMILES comes first, the peptide text is derived from it. Bridges are numbered along the chain shown (N, C = ends). Roman numbers before positions name the chains, in order. [ ]: non-standard residue; d: D form. Actinocin(9to1) = Cc1c2oc3c(C)ccc(C(=O)[*:1])c3nc-2c(C(=O)[*:2])c(N)c1=O; NMeV = CN[C@H](C(=O)O)C(C)C; Sar = CNCC(=O)O Some results are limits rather than exact numbers.

The experiment deals with C2C12 WNT3A-conditioned, nuclear beta-catenin. Description: activation of intranuclear CTNNB1 in the C2C12 line, dose-response, cell-based, Wnt-3a conditioned medium, half-maximal inhibitory concentration (AID 1117325).
As for `CC[C@]1(O)C[C@@H]2CN(CCc3c([nH]c4ccccc34)[C@@](C(=O)OC)(c3cc4c(cc3OC)N(C)[C@H]3[C@@](O)(C(=O)OC)[C@H](OC(C)=O)[C@]5(CC)C=CCN6CC[C@]43[C@@H]65)C2)C1`, the IC50 is 3.5 nM and 5.8 nM.

In the case of `COc1cc(C=C2CCC/C(=C\c3ccc(O)c(OC)c3)C2=O)ccc1O`, the IC50 was 5040 nM (inactive).

Take `COc1cccc2c1C(=O)c1c(O)c3c(c(O)c1C2=O)C[C@@](O)(C(=O)CO)CC3OC1CC(N2CCOC(OC)C2)C(O)C(C)O1` (stereo partly drawn): the IC50 was 13.5 nM.

In the case of `CCCCCCCCCCCCCC[N+](C)(C)C`, the IC50 was > 20000 nM (inactive).

Regarding `c1ccc2c(c1)Sc1ccccc1N2CC1CN2CCC1CC2` (stereo not drawn), the IC50 was > 20000 nM (inactive).

Regarding `COc1cc([C@@H]2c3cc4c(cc3[C@H](O)[C@H]3COC(=O)[C@H]23)OCO4)cc(OC)c1OC`, the half-maximal inhibitory concentration (IC50) is 13.1 nM.

In the case of `COc1cccc2c1C(=O)c1c(O)c3c(c(O)c1C2=O)C[C@@](O)(C(C)=O)C[C@@H]3O[C@H]1C[C@H](N)[C@H](O)[C@H](C)O1`, the concentration for half-maximal inhibition (IC50) is 369 nM.

Take `CCC1=C[C@@H]2CN(C1)Cc1c([nH]c3ccccc13)[C@@](C(=O)OC)(c1cc3c(cc1OC)N(C)[C@H]1[C@@](O)(C(=O)OC)[C@H](OC(C)=O)[C@]4(CC)C=CCN5CC[C@]31[C@@H]54)C2`: the IC50 is 8.9 nM.

For the molecule `CC(C)(C)C(=O)OCOP(=O)(COCCn1cnc2c(N)ncnc21)OCOC(=O)C(C)(C)C`, the concentration for half-maximal inhibition (IC50) is 704 nM.

On to `Cc1cc(C2CCCCC2)n(O)c(=O)c1`, for which the IC50 was > 20000 nM (inactive).

On to `CC(=O)Oc1ccc(C2(c3ccc(OC(C)=O)cc3)Oc3ccccc3NC2=O)cc1`, for which the IC50 was > 20000 nM (inactive).

As for `Cc1c2oc3c(C)ccc(C(=O)N[C@@H]4C(=O)N[C@H](C(C)C)C(=O)N5CCC[C@H]5C(=O)N(C)CC(=O)N(C)[C@@H](C(C)C)C(=O)O[C@@H]4C)c3nc-2c(C(=O)N[C@@H]2C(=O)N[C@H](C(C)C)C(=O)N3CCC[C@H]3C(=O)N(C)CC(=O)N(C)[C@@H](C(C)C)C(=O)O[C@@H]2C)c(N)c1=O` (I: T[dV]P[Sar][NMeV] / II: T[dV]P[Sar][NMeV]; ester I:1-I:C, II:1-II:C; linker I:N-II:N via Actinocin(9to1)), the IC50 was 37 nM.

In the case of `CN1C[C@H](CNC(=O)OCc2ccccc2)C[C@@H]2c3cccc4c3c(cn4C)C[C@H]21`, the IC50 is > 20000 nM (inactive).

With `C[n+]1c2cc(N)ccc2cc2ccc(N)cc21` (tested in a mixture with another compound), the IC50 was > 20000 nM (inactive).

On to `Cc1cc(=O)c2c(O)c3c(O)cc(=O)c4c3c3c(cc(O)c1c23)C(C)(C)C=4O`, for which the IC50 was 1070 nM.

For `Oc1c(I)cc(Cl)c2cccnc12`, the IC50 is > 20000 nM (inactive).

Turning to `C=C(C)[C@H]1Cc2c(ccc3c2O[C@@H]2COc4cc(OC)c(OC)cc4[C@@H]2C3=O)O1`, the IC50 was 2990 nM.

Consider `CC[C@]1(O)C[C@H]2CN(CCc3c([nH]c4ccccc34)[C@@](C(=O)OC)(c3cc4c(cc3OC)N(C=O)[C@H]3[C@@](O)(C(=O)OC)[C@H](OC(C)=O)[C@]5(CC)C=CCN6CC[C@]43[C@@H]65)C2)C1`, for which the half-inhibitory concentration (IC50) was 4 nM.

As for `CCCCCCCCCCOCC(O)CN` (stereo not drawn), the IC50 is > 20000 nM (inactive).

For `Cc1cc(O)c2ccccc2c1O`, the 50% inhibitory concentration (IC50) is 4390 nM.

With `[O-][n+]1ccccc1SSc1cccc[n+]1[O-]`, the IC50 is 991 nM.

Turning to `NC(=NCCCCCCN=C(N)/N=C(\N)Nc1ccc(Cl)cc1)/N=C(\N)Nc1ccc(Cl)cc1`, the IC50 was > 20000 nM (inactive).

Regarding `CN(C)C(=S)SSC(=S)N(C)C`, the IC50 is > 20000 nM (inactive).

As for `CC[C@@H]([C@H](C)O)n1ncn(-c2ccc(N3CCN(c4ccc(OC[C@@H]5CO[C@@](Cn6cncn6)(c6ccc(F)cc6F)C5)cc4)CC3)cc2)c1=O`, the IC50 was 5290 nM (inactive).

With `O=C1C2CC=CCC2C(=O)N1SC(Cl)(Cl)Cl` (stereo not drawn), the IC50 was > 20000 nM (inactive).

`Clc1cc(Cl)c(OCC#CI)cc1Cl`: the IC50 is > 20000 nM (inactive).

Regarding `CCCCCCNC(=O)n1cc(F)c(=O)[nH]c1=O`, the IC50 was 4980 nM.

Take `O=[N+]([O-])c1ccc(O)c2ncccc12`: the IC50 is > 20000 nM (inactive).

For `O=C1c2c(O)ccc(O)c2C(=O)c2c(NCCNCCO)ccc(NCCNCCO)c21`, the IC50 was 30.3 nM.

As to `COC(=O)Nc1nc2ccc(C(=O)c3cccs3)cc2[nH]1`, the concentration for half-maximal inhibition (IC50) is 235 nM.

`O=C(Nc1ccc([N+](=O)[O-])cc1Cl)c1cc(Cl)ccc1O`: the half-inhibitory concentration (IC50) is 1570 nM.

On to `COc1cc([C@@H]2c3cc4c(cc3[C@@H](O[C@@H]3O[C@@H]5CO[C@@H](C)O[C@@H]5[C@H](O)[C@@H]3O)[C@H]3COC(=O)[C@H]23)OCO4)cc(OC)c1O`, for which the IC50 is > 20000 nM (inactive).

Consider `CCCCCCCCCCCC(=O)[O][Sn]([CH2]CCC)([CH2]CCC)[O]C(=O)CCCCCCCCCCC`, for which the IC50 was > 20000 nM (inactive).

For the molecule `C=CC(=O)Nc1cc2c(Nc3ccc(F)c(Cl)c3)ncnc2cc1OCCCN1CCOCC1`, the IC50 was 1000 nM.

For `COCc1c(C(C)C)nc(C(C)C)c(/C=C/[C@@H](O)C[C@@H](O)CC(=O)O)c1-c1ccc(F)cc1`, the IC50 is 6670 nM (inactive).

Turning to `CCCN(CCC)C(=O)C(CCC(=O)OCCCN1CCN(CCOC(=O)Cc2c(C)n(C(=O)c3ccc(Cl)cc3)c3ccc(OC)cc23)CC1)NC(=O)c1ccccc1` (stereo not drawn), the IC50 is > 20000 nM (inactive).

`COC(=O)[C@H]1[C@H]2C[C@@H]3c4[nH]c5cc(OC)ccc5c4CCN3C[C@H]2C[C@@H](OC(=O)/C=C/c2ccc(O)c(OC)c2)[C@@H]1OC`: the IC50 was > 20000 nM (inactive).

Regarding `Cc1ccccc1C(=O)Nc1ccc(C(=O)N2CCCC(N(C)C)c3ccccc32)cc1` (stereo not drawn), the half-maximal inhibitory concentration (IC50) was 4560 nM.

Consider `COC(=O)Nc1nc2ccc(C(=O)c3ccccc3)cc2[nH]1`, for which the IC50 was 1740 nM.

As to `O=c1c(-c2ccccc2)c1-c1ccccc1`, the IC50 was > 20000 nM (inactive).

For `CC(C)C[C@H](NC(=O)[C@H](CCc1ccccc1)NC(=O)CN1CCOCC1)C(=O)N[C@@H](Cc1ccccc1)C(=O)N[C@@H](CC(C)C)C(=O)[C@@]1(C)CO1`, the IC50 was 29.2 nM.

With `CC(=O)O[C@@]12CO[C@@H]1C[C@H](O)[C@@]1(C)C(=O)[C@H](O)C3=C(C)[C@@H](OC(=O)[C@H](O)[C@@H](NC(=O)OC(C)(C)C)c4ccccc4)C[C@@](O)([C@@H](OC(=O)c4ccccc4)[C@H]21)C3(C)C`, the IC50 is 65.2 nM.

Consider `COc1cccc2c1C(=O)c1c(O)c3c(c(O)c1C2=O)C[C@@](O)(C(=O)CO)C[C@@H]3O[C@H]1C[C@H](N)[C@H](O[C@@H]2CCCCO2)[C@H](C)O1`, for which the IC50 was > 20000 nM (inactive).

For `CCCSc1ccc2nc(NC(=O)OC)[nH]c2c1`, the IC50 is 1280 nM.

For `Oc1c(Cl)cc(Cl)cc1Sc1cc(Cl)cc(Cl)c1O`, the IC50 is > 20000 nM (inactive).

Turning to `CN1CC[C@H](c2c(O)cc(O)c3c(=O)cc(-c4ccccc4Cl)oc23)[C@H](O)C1`, the 50% inhibitory concentration (IC50) is 190 nM.

In the case of `CCCCCCCCCCCCCC[N+](C)(C)Cc1ccccc1`, the IC50 is > 20000 nM (inactive).

Consider `Nc1ccc2cc3ccc(N)cc3nc2c1`, for which the IC50 was 5990 nM (inactive).

Turning to `O=C1C(I)=CC(=C(c2cc(I)c(O)c(I)c2)c2ccccc2C(=O)O)C=C1I`, the IC50 was > 20000 nM (inactive).

`NC(N)=NN=C(/C=C/c1ccc([N+](=O)[O-])o1)/C=C/c1ccc([N+](=O)[O-])o1`: the IC50 is > 20000 nM (inactive).

`CN(Cc1cnc2nc(N)nc(N)c2n1)c1ccc(C(=O)N[C@@H](CCC(=O)O)C(=O)O)cc1`: the concentration for half-maximal inhibition (IC50) was 26.5 nM.

Turning to `Cc1cc(CC(C)CC(C)(C)C)n(O)c(=O)c1` (stereo not drawn), the half-maximal inhibitory concentration (IC50) was 591 nM.

In the case of `COC(=O)Nc1nc2ccc(S(=O)c3ccccc3)cc2[nH]1` (stereo not drawn), the 50% inhibitory concentration (IC50) is 468 nM.

`CCCCCCCCCCCCCCC[C@H](O)[C@@H](N)CO`: the IC50 is > 20000 nM (inactive).

For `COc1ccc2cc1Oc1ccc(cc1)C[C@H]1c3c(cc4c(c3Oc3cc5c(cc3OC)CCN(C)[C@@H]5C2)OCO4)CCN1C`, the IC50 was 5630 nM (inactive).

With `OCCN1CCN(CCCN2c3ccccc3Sc3ccc(Cl)cc32)CC1`, the IC50 was > 20000 nM (inactive).

On to `COC(=O)Nc1nc2ccc(Sc3ccccc3)cc2[nH]1`, for which the half-inhibitory concentration (IC50) is 4840 nM.

Consider `COC(=O)c1nc(Cl)c(Cl)nc1N`, for which the half-maximal inhibitory concentration (IC50) was 308 nM.

Regarding `Cc1nc(N)nc(N)c1-c1ccc(Cl)c(Cl)c1`, the IC50 was 50.4 nM.

Turning to `CC[C@@]1(O)C(=O)OCc2c1cc1n(c2=O)Cc2c-1nc1ccccc1c2/C=N/OC(C)(C)C`, the IC50 was 1160 nM.

Turning to `CN(C)c1ccc(C(=C2C=CC(=[N+](C)C)C=C2)c2ccccc2)cc1`, the IC50 was > 20000 nM (inactive).

In the case of `Cc1ccc2nc(N)[nH]c(=O)c2c1Sc1ccncc1`, the 50% inhibitory concentration (IC50) is 710 nM.

Consider `CCCCc1ccc2nc(NC(=O)OC)[nH]c2c1`, for which the IC50 was 33.6 nM.

As to `O=[N+]([O-])C(Br)(CO)CO`, the IC50 was > 20000 nM (inactive).

Take `COC(=O)Nc1nc2ccc(C(=O)C3CC3)cc2[nH]1`: the IC50 was 349 nM.

Take `Cc1nc(Nc2ncc(C(=O)Nc3c(C)cccc3Cl)s2)cc(N2CCN(CCO)CC2)n1`: the IC50 is 104 nM.

In the case of `CCc1nc(N)nc(N)c1-c1ccc(Cl)cc1`, the IC50 is 860 nM.

Take `CCN(CC)CCNc1ccc(CO)c2sc3ccccc3c(=O)c12`: the IC50 is > 20000 nM (inactive).

For `Cc1ccc2c(Br)cc(Br)c(O)c2n1`, the IC50 was > 20000 nM (inactive).

As for `CCCOc1ccc2nc(NC(=O)OC)[nH]c2c1`, the 50% inhibitory concentration (IC50) was 365 nM.

With `C[C@@]12C(=O)OC(=O)[C@]1(C)C1CCC2O1`, the IC50 is > 20000 nM (inactive).

On to `Cc1cc2c(C(C)C)c(O)c(O)c(C=O)c2c(O)c1-c1c(C)cc2c(C(C)C)c(O)c(O)c(C=O)c2c1O`, for which the half-maximal inhibitory concentration (IC50) was 3490 nM.

Regarding `Cc1ccc([N+](=O)[O-])[c]2c1[O][Hg]2`, the IC50 was 1510 nM.

In the case of `CSc1ccc2c(c1)C(N1CCN(C)CC1)Cc1ccccc1S2` (stereo not drawn), the IC50 was > 20000 nM (inactive).

As to `O[C@@H](c1cc(C(F)(F)F)nc2c(C(F)(F)F)cccc12)[C@H]1CCCCN1`, the IC50 is > 20000 nM (inactive).

For the molecule `O=C(CCl)c1ccc(Cl)cc1Cl`, the IC50 is 373 nM.

Consider `CC(=O)[C@]1(O)Cc2c(O)c3c(c(O)c2[C@@H](O[C@H]2C[C@H](N)[C@H](O)[C@H](C)O2)C1)C(=O)c1ccccc1C3=O`, for which the IC50 was 100 nM.

For `CC[C@@]1(O)C(=O)OCc2c1cc1n(c2=O)Cc2cc3c(CN(C)C)c(O)ccc3nc2-1`, the IC50 was 134 nM.

Source of the values: PubChem BioAssay AID1117325 (Cheminformatics & Chemogenomics Research Group (CCRG), …, 2015).
